Earlier results in patent US10391078B2, “Methods for the treatment of mast cell related disorders with mast cell stabilizers” (Respivant Sciences GmbH, priority 2015, dated 2019).
Read-outs that look alike come from different tables or passages of the source.

O=C(O)c1cc(=O)c2c(OCC(O)COc3cccc4oc(C(=O)O)cc(=O)c34)cccc2o1 [cromolyn sodium]
oral bioavailability: less than 1%
oral bioavailability (listed as cromolyn): about 1%
